From patent US5700808A, “5- or 6-substituted β-carboline-3-carboxylic acid esters” (Schering Aktiengesellschaft, priority 1986, dated 1997)

What was measured:
[1] = test system: benzodiazepine receptor; test: in vivo binding test (reduction of specific flunitrazepam binding in a living brain); details: dose reducing specific binding of flunitrazepam to the benzodiazepine receptor in a living brain to 50% of the control value
Excerpt: The ED50 in vivo value represents the dose of a test compound effecting a reduction in specific binding of flunitrazepam to the benzodiazepine receptor in a living brain to 50% of the control value.

[2] = chimney test (motor discoordination); assay type: in vivo; details: ip, higher ED50 is better, as it indicates lower activity in inducing motor discoordination
Method: The chimney test was performed according to the method of Poissier, Jr., et al. Med. Exp. 3: 81-84 (1960). The higher the ED50 value in the chimney test the better, since this indicates a lower activity in inducing motor discoordination.

[3] = bioavailability in rats; details: rat, in vivo

SMILES	ED50 mg/kg in vivo [1]	TD50 [2]	bioavailability [3]
CCOC(=O)c1ncc2[nH]c3ccc(OCc4ccccc4)cc3c2c1COC [A, 6-benzyloxy-4-methoxymethyl-beta-carboline-3-carboxylic acid ethyl ester]	5.6 mg/kg	12.1 mg/kg	17%
COCc1c(C(=O)OC(C)C)ncc2[nH]c3ccc(OCc4ccccc4)cc3c12 [B, 6-benzyloxy-4-methoxymethyl-beta-carboline-3-carboxylic acid ispropyl ester]	0.4 mg/kg	> 50 mg/kg	32%
